{"source": "patent US20210106687A1", "about": "“BOLAAMPHIPHILIC COMPOUNDS, COMPOSITIONS AND USES THEREOF” (Lauren Sciences LLC, priority 2012, published 2021)", "key": {"b.End3 cells [1]": {"test_system": "b.End3 cells", "test": "Internalization of CF by the cells in vitro, FACS", "format": "cell-based, mouse", "conditions": "equivalent to 0.5 μg/mL CF", "procedure": "b.End3 immortalized mouse brain capillary endothelium cells were kindly provided by Prof Philip Lazarovici (Institute for Drug Research, School of Pharmacy, The Hebrew University of Jerusalem, Israel). The b.End3 cells were cultured in DMEM medium supplemented with 10% fetal bovine serum, 2 mM L-Glutamine, 100 IU/mL penicillin and 100 μg/mL streptomycin (Biological Industries Ltd., Beit Haemek, Israel). The cells were maintained in an incubator at 37° C. in a humidified atmosphere with 5% CO2.\nAll the images were acquired using the same imaging settings and were not corrected or modified.\nThe inventors investigated whether this trend is still apparent in the interaction of magnetic and non-magnetic bolavesicles with brain capillary endothelial cells. To this end, the inventors used murine b.End3 cells, which are one of the most extensively used cell lines for brain uptake and permeability studies^25. […] Previously, the inventors extensively used ^b.End3 cells to analyze uptake and intracellular fate of bolavesicles encapsulating model proteins and marker compounds^8."}, "b.End3 cells [2]": {"test_system": "b.End3 cells", "test": "Internalization of CF by the cells in vitro, confocal fluorescence microscopy", "format": "cell-based, mouse", "conditions": "5 h at 37° C.; FIG. 4", "protocol": "b.End3 cells were grown on 24-well plates or on coverslips (for FACS and fluorescence microscopy analysis, respectively). The medium was replaced with culture medium without serum and CF solution, or tested bolavesicles (equivalent to 0.5 μg/mL CF), or equivalent volume of the medium were added to the cells and incubated for 5 hr at 4° C. or at 37° C. At the end of the incubation, cells were extensively washed with complete medium and with PBS, and were either detached from the plates using trypsin-EDTA solution (Biological Industries Ltd., Beit Haemek, Israel) and analyzed by FACS (FACSCalibur Flow Cytometer, BD Biosciences, USA), or fixed with 2.5% formaldehyde in PBS, washed twice with PBS, mounted on slides using Mowiol-based mounting solution and analyzed using a FV1000-IX81 confocal microscope (Olympus, Tokyo, Japan) equipped with 60× objective. All the images were acquired using the same imaging settings and were not corrected or modified."}}, "data": [{"substance": "carboxyfluorescein [CF]", "values": [{"measurement": "Internalization by b.End3 cells (FACS)", "setting": "b.End3 cells [1]; 5 hr at 4° C.", "value": "not able to internalize"}, {"measurement": "Internalization by b.End3 cells (FACS)", "setting": "b.End3 cells [1]; 5 hr at 37° C.", "value": "not able to internalize"}, {"measurement": "Endocytosis of CF by b.End3 cells (confocal microscopy)", "setting": "b.End3 cells [2]", "value": "endocytosed by the bEnd.3 cells only when encapsulated within the bolavesicles"}]}]}
